This is an account of results in BindingDB's records for PubMed 11454905 (Eli Lilly, 2001).

Residues, ends and D or L forms follow the SMILES beside them.

Metabotropic glutamate receptor 3, sequence (P31422 whole entry): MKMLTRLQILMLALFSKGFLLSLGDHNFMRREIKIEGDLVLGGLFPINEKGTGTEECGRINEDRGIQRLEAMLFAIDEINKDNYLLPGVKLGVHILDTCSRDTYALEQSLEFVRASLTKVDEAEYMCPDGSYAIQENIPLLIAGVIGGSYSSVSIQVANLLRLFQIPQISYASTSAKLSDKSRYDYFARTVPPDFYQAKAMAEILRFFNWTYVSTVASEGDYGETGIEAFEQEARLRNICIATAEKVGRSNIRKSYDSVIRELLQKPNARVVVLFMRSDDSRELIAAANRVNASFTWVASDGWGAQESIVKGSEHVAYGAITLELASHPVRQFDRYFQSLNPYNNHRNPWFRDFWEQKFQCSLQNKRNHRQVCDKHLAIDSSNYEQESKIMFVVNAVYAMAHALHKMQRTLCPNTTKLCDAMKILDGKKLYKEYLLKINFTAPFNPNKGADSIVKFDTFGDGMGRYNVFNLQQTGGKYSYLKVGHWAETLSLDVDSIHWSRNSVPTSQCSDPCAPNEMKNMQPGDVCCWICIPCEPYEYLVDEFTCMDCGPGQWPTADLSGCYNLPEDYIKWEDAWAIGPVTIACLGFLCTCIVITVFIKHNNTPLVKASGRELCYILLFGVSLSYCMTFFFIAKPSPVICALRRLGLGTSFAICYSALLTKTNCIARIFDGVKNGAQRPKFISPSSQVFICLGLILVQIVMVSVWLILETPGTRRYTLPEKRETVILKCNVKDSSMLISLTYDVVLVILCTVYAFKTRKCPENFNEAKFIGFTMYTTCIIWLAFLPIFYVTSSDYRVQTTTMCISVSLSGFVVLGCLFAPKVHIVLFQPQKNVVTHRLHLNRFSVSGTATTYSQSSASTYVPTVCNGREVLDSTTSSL

The assay concerns the target Metabotropic glutamate receptor 3 (Rattus norvegicus, UniProt P31422).
A word on the Ki: it is a dissociation constant, usually derived from enzyme kinetics or from competition with a known ligand. A higher Ki goes with lower affinity. `CC(=O)N[C@@H](CC(=O)O)C(=O)N[C@@H](CCC(=O)O)C(=O)O` [[3H]NAAG] (Ac-Asp-Glu-OH) yielded a Ki greater than 10 µM.

In turn, `N[C@H](C(=O)O)C1[C@@H](C(=O)O)[C@@H]1C(=O)O` (some centres not stated) [DCG-IV] came in with a Ki of 0.061 µM.

In the case of `N[C@@]1(C(=O)O)CC[C@H]2[C@H](C(=O)O)[C@H]21` [(2S,6S)-2-Amino-bicyclo[3.1.0]hexane-2,6-dicarboxylic acid], the Ki is greater than 10 µM.

`CC(N)(C(=O)O)c1ccc(P(=O)(O)O)cc1` (configuration not stated) registered a Ki greater than 10 µM.

`N[C@H](C(=O)O)[C@H]1C[C@H]1C(=O)O` [L-CCG-IV] registered a Ki of 0.334 µM.

`Nc1nc(O)c2ncn(COC(CO)CO)c2n1` [CAS_82410-32-0]: the Ki is greater than 10 µM.

For the compound `O=C(O)[C@H]1CN[C@H](C(=O)O)C1` [t-PDC], the Ki was greater than 10 µM.

Regarding `NC(C(=O)O)c1ccc(P(=O)(O)O)cc1` (configuration not stated) [Amino-(4-phosphono-phenyl)-acetic acid(RS-PPG)], the Ki was greater than 10 µM.

In the case of `O=C(O)[C@H]1[C@H]2CN[C@H](C(=O)O)[C@H]21`, the Ki is greater than 10 µM.

Compound `N[C@@H](CC(=O)O)C(=O)O` [L-Aspartic acid, 2] returned a Ki greater than 10 µM.

As for `NC(Cn1cnc2c(=O)[nH]c(=O)[nH]c21)(C(=O)O)C1CC1C(=O)O` (configuration not stated) [CAS_5311260], affinity was put at a Ki of 0.0008 µM.

`NC(CCC(=O)O)C(=O)O` (configuration not stated) [glutamic acid dianion] registered a Ki of 0.09 µM.

Consider `N[C@@]1(C(=O)O)CN[C@@H](C(=O)O)C1` [2R, 4R-APDC], for which the Ki came to 2.73 µM.

Turning to `N[C@@]1(C(=O)O)CC[C@H](C(=O)O)C1` [1S, 3R-ACPD], the Ki is greater than 10 µM.

Turning to `N[C@@H](Cn1oc(=O)[nH]c1=O)C(=O)O` [2-amino-3-(3,5-dioxo[1,2,4]oxadiazolidin-2-yl)propionic acid], the inhibitory constant (Ki) is greater than 10 µM.

As for `C[C@@](N)(C(=O)O)c1ccc(C(=O)O)cc1` (racemic), the Ki is greater than 10 µM.

Compound `N[C@@]1(C(=O)O)CC[C@H](CC(=O)O)C1` [(1S,3S)-HOMO-ACPD] came in with a Ki of 8.69 µM.

Compound `N[C@@]1(C(=O)O)CO[C@H]2[C@H](C(=O)O)[C@H]21` [LY379268] came in with a Ki of 0.0065 µM.

The compound `N[C@H](CP(=O)(O)O)C(=O)O` [CAS_23052-80-4] gave a Ki greater than 10 µM.

The compound `N[C@@H](CCC(=O)O)C(=O)O` [L-Glutamic acid] gave a Ki greater than 10 µM.

The compound `N[C@@H](C[C@@H](CCCC(c1ccccc1)c1ccccc1)C(=O)O)C(=O)O` [LY307452] showed a Ki of 2.01 µM.

`N[C@@H](CCP(=O)(O)O)C(=O)O` showed a Ki greater than 10 µM.
